For assay [1], the target named is T1, human glucagon receptor (GCGR) (Homo sapiens, UniProt P47871).
T1 construct: expressed in transfected cells; host or cells: CHO-JumpIn cells, stably transfected
Description: cAMP assay on CHO-JumpIn cells stably transfected with human glucagon receptor (HitHunter cAMP).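 On all read-outs here: peptides tested as 4-fold serial dilutions starting from a 2 µM solution, cells exposed 1 hr at RT in darkness, cAMP quantified against a cAMP standard curve.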 Format: cell-based. As to conditions: for EC50: Table 2, cAMP accumulation, CHO-JumpIn cells with human GCGR, buffer PBS, 0.1% BSA, 100 μM RO 20-1724, 20% serum, 1 hr at RT, value ± spread, read-out: EC50 GCGR. For orientation: cAMP levels reflect the balance of adenylyl cyclase and phosphodiesterase activity.
Description: (§1) Briefly, a 2 μM solution of peptide was prepared, and 4-fold serial dilutions were made. 150 nL of the above titration was then dispensed into an Optiplate384 using an Echo555. […] The HitHunter® cAMP Assay kit calibration curve was prepared following the manufacturer’s protocol (DiscoveRx-90-0075L). 30,000 cells/well were added to the peptides, spun briefly at 500 rpm for 15 s and incubated at RT in the dark for 1 hr. The assay was developed as per the manufacturer’s instructions. cAMP accumulation due to GLP1R agonism or GCGR agonism was measured using an EnVision platereader (PerkinElmer), and calibrated using the cAMP standard curve. Data were analyzed using Assay Data Analyzer (ADA).

Assay [2] has as its target T2, human GLP-1 receptor (GLP1R) (Homo sapiens, UniProt P43220).
T2 construct: expressed in transfected cells; host or cells: CHO-JumpIn cells, stably transfected
Description: cAMP assay on CHO-JumpIn cells stably transfected with human GLP-1 receptor (HitHunter cAMP).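 Further: peptides tested as 4-fold serial dilution series, cells exposed 1 hr at RT in the dark, cAMP quantified against a cAMP standard calibration curve.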 The following applies: Table 2, cAMP accumulation, buffer PBS, 0.1% BSA, 100 μM RO 20-1724, 20% serum, 1 hr at RT, value ± spread, read-out: EC50 GLP1R. Format: cell-based.
Description: as §1

In general, EC50 refers to the concentration that produces a half-maximal response.

Structures are written as SMILES. Residues, ends and D or L forms follow the SMILES beside them. A value given as a limit tells only on which side of the number the result lay.

T1 sequence (P47871 26-477): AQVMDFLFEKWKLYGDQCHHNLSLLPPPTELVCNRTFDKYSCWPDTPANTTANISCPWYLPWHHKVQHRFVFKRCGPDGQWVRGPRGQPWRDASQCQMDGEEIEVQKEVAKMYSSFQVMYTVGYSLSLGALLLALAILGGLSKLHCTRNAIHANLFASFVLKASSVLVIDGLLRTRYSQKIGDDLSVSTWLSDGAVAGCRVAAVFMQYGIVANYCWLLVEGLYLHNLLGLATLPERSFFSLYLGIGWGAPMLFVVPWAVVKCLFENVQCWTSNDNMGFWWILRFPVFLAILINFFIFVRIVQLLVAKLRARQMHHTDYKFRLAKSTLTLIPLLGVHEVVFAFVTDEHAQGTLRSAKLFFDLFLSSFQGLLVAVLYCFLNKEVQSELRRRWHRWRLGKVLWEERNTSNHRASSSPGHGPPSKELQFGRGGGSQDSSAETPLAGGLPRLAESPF
T2 sequence (P43220 24-463): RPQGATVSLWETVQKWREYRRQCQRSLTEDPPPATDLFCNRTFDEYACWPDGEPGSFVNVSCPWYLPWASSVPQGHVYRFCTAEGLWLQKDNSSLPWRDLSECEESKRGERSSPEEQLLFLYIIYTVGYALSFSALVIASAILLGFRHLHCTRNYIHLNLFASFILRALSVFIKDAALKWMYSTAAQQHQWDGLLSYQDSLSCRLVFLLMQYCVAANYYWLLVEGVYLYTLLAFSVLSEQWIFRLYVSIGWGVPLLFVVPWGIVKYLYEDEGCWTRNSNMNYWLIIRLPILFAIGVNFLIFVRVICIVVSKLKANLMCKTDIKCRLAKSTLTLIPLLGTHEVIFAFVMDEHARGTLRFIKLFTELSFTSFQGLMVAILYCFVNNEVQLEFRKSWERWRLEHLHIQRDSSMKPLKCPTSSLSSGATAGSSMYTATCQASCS

With `CSCC[C@H](NC(=O)[C@H](CO)NC(=O)[C@H](C)N)C(=O)N[C@@H](Cc1ccccc1)C(=O)N[C@H](C(=O)N[C@@H](Cc1ccccc1)C(=O)N[C@@H](Cc1ccccc1)C(=O)N[C@@H](CO)C(=O)N[C@@H](CC(=O)O)C(=O)N[C@@H](Cc1ccc(O)cc1)C(=O)N[C@@H](CO)C(=O)N[C@@H](CCCCN)C(=O)N[C@@H](Cc1ccc(O)cc1)C(=O)N[C@@H](CC(C)C)C(=O)N[C@@H](CC(=O)O)C(=O)N[C@@H](CO)C(=O)N[C@@H](CCCNC(=N)N)C(=O)N[C@@H](CCCNC(=N)N)C(=O)N[C@@H](C)C(=O)N[C@@H](CCC(N)=O)C(=O)N[C@@H](CC(=O)O)C(=O)N[C@@H](Cc1ccccc1)C(=O)N[C@H](C(=O)N[C@@H](CCC(N)=O)C(=O)N[C@@H](Cc1c[nH]c2ccccc12)C(=O)N[C@@H](CC(C)C)C(=O)N[C@@H](CCSC)C(=O)N[C@@H](CC(C)C)C(=O)N[C@H](C(N)=O)[C@@H](C)O)C(C)C)[C@@H](C)O` [Peptide 15] (H-ASMFTFFSDYSKYLDSRRAQDFVQWLMLT-NH2; N-terminus assumed), the values for the EC50 in assay [1] and in assay [2] were over 20000 pM and over 200000 pM, respectively. Also, the “activation of the receptors (in words)” value in assay [1] (both receptors (GCGR and GLP1R) not activated) is recorded as “did not activate”.

As for `CC[C@H](C)[C@H](NC(=O)[C@H](CC(=O)O)NC(=O)[C@H](CC(C)C)NC(=O)[C@H](Cc1ccc(O)cc1)NC(=O)[C@H](CCCCN)NC(=O)[C@H](CO)NC(=O)[C@H](Cc1ccc(O)cc1)NC(=O)[C@H](CC(=O)O)NC(=O)[C@H](CO)NC(=O)[C@@H](NC(=O)[C@H](Cc1ccccc1)NC(=O)[C@@H](NC(=O)CNC(=O)[C@H](CCC(N)=O)NC(=O)[C@H](CO)NC(=O)[C@@H](N)Cc1c[nH]cn1)[C@@H](C)O)[C@@H](C)O)C(=O)NCC(=O)N[C@@H](CCCNC(=N)N)C(=O)N[C@@H](C)C(=O)N[C@@H](CCC(N)=O)C(=O)N[C@@H](CC(=O)O)C(=O)N[C@@H](Cc1ccccc1)C(=O)N[C@H](C(=O)N[C@@H](CCC(N)=O)C(=O)N[C@@H](Cc1c[nH]c2ccccc12)C(=O)N[C@@H](CC(C)C)C(=O)N[C@@H](CC(C)C)C(=O)N[C@@H](CC(N)=O)C(=O)N[C@H](C(N)=O)[C@@H](C)O)C(C)C` [Peptide 4] (H-HSQGTFTSDYSKYLDIGRAQDFVQWLLNT-NH2), the EC50 in assay [1] is 26 ± 2 pM; in assay [2] it was 1330 ± 209 pM.

`CSCC[C@H](NC(=O)[C@H](CC(C)C)NC(=O)[C@H](Cc1c[nH]c2ccccc12)NC(=O)[C@H](CCC(N)=O)NC(=O)[C@@H](NC(=O)[C@H](Cc1ccccc1)NC(=O)[C@H](CC(=O)O)NC(=O)[C@H](CCC(N)=O)NC(=O)[C@H](C)NC(=O)[C@H](CCCNC(=N)N)NC(=O)[C@H](CCCNC(=N)N)NC(=O)[C@H](CO)NC(=O)[C@H](CC(=O)O)NC(=O)[C@H](CC(C)C)NC(=O)[C@H](Cc1c[nH]c2ccccc12)NC(=O)[C@H](Cc1c[nH]cn1)NC(=O)[C@H](CO)NC(=O)[C@H](Cc1ccc(O)cc1)NC(=O)[C@H](CC(=O)O)NC(=O)[C@H](CO)NC(=O)[C@H](Cc1ccccc1)NC(=O)[C@H](Cc1ccccc1)NC(=O)[C@@H](NC(=O)CNC(=O)[C@H](CCC(N)=O)NC(=O)[C@H](CO)NC(=O)[C@@H](N)Cc1c[nH]cn1)[C@@H](C)O)C(C)C)C(=O)N[C@@H](CC(N)=O)C(=O)N[C@H](C(N)=O)[C@@H](C)O` [Peptide 22]: the EC50 in assay [1] was 29 ± 1 pM; in assay [2], over 200000 pM.

`CSCC[C@H](NC(=O)[C@H](CC(C)C)NC(=O)[C@H](Cc1c[nH]c2ccccc12)NC(=O)[C@H](CCC(N)=O)NC(=O)[C@@H](NC(=O)[C@H](Cc1ccccc1)NC(=O)[C@H](CC(=O)O)NC(=O)[C@H](CCC(N)=O)NC(=O)[C@H](C)NC(=O)[C@H](CCCNC(=N)N)NC(=O)[C@H](CCCNC(=N)N)NC(=O)[C@H](CO)NC(=O)[C@H](CC(=O)O)NC(=O)[C@H](CC(C)C)NC(=O)[C@H](Cc1ccc(O)cc1)NC(=O)[C@H](CCCCN)NC(=O)[C@H](CO)NC(=O)[C@H](Cc1ccc(O)cc1)NC(=O)[C@H](CC(=O)O)NC(=O)[C@H](CO)NC(=O)[C@H](Cc1c[nH]c2ccccc12)NC(=O)[C@H](Cc1ccccc1)NC(=O)[C@H](CC(N)=O)NC(=O)CNC(=O)[C@@H](NC(=O)[C@H](CO)NC(=O)[C@@H](N)Cc1c[nH]cn1)C(C)C)C(C)C)C(=O)N[C@@H](CC(C)C)C(=O)N[C@H](C(N)=O)[C@@H](C)O` [Peptide 1] (H-HSVGNFWSDYSKYLDSRRAQDFVQWLMLT-NH2): the EC50 in assay [1] was 8440 ± 2670 pM; in assay [2] it was 16700 ± 10300 pM.

Take `CSCC[C@H](NC(=O)[C@H](CC(C)C)NC(=O)[C@H](Cc1c[nH]c2ccccc12)NC(=O)[C@H](CCC(N)=O)NC(=O)[C@@H](NC(=O)[C@H](Cc1ccccc1)NC(=O)[C@H](CC(=O)O)NC(=O)[C@H](CCC(N)=O)NC(=O)[C@H](C)NC(=O)[C@H](CCCNC(=N)N)NC(=O)[C@H](CCCNC(=N)N)NC(=O)[C@H](CO)NC(=O)[C@H](CC(=O)O)NC(=O)[C@H](CC(C)C)NC(=O)[C@H](Cc1ccc(O)cc1)NC(=O)[C@H](CCCCN)NC(=O)[C@H](CO)NC(=O)[C@H](Cc1ccc(O)cc1)NC(=O)[C@H](CC(=O)O)NC(=O)[C@H](CO)NC(=O)[C@@H](NC(=O)[C@H](Cc1ccccc1)NC(=O)[C@@H](NC(=O)[C@H](Cc1ccccc1)NC(=O)[C@H](CCC(N)=O)NC(=O)CNC(=O)[C@H](CC(C)C)NC(=O)[C@H](C)NC(=O)[C@@H](N)CCCCN)[C@@H](C)O)[C@@H](C)O)C(C)C)C(=O)N[C@@H](CC(N)=O)C(=O)N[C@H](C(N)=O)[C@@H](C)O` [Peptide 21] (H-KALGQFTFTSDYSKYLDSRRAQDFVQWLMNT-NH2): the values for the EC50 in assay [1] and in assay [2] were 4180 ± 1130 pM and 14800 ± 11400 pM, respectively.

Take `CSCC[C@H](NC(=O)[C@H](CC(=O)O)NC(=O)[C@H](CC(C)C)NC(=O)[C@H](Cc1ccc(O)cc1)NC(=O)[C@H](CCCCN)NC(=O)[C@H](CO)NC(=O)[C@H](Cc1ccc(O)cc1)NC(=O)[C@H](CC(=O)O)NC(=O)[C@H](CO)NC(=O)[C@@H](NC(=O)[C@H](Cc1ccccc1)NC(=O)[C@@H](NC(=O)CNC(=O)[C@H](CCC(N)=O)NC(=O)[C@H](CO)NC(=O)[C@@H](N)Cc1c[nH]cn1)[C@@H](C)O)[C@@H](C)O)C(=O)N[C@@H](CCC(N)=O)C(=O)N[C@@H](CCCNC(=N)N)C(=O)N[C@@H](C)C(=O)N[C@@H](Cc1c[nH]cn1)C(=O)N[C@@H](CC(=O)O)C(=O)N[C@@H](Cc1ccccc1)C(=O)N[C@H](C(=O)N[C@@H](CCC(N)=O)C(=O)N[C@@H](Cc1c[nH]c2ccccc12)C(=O)N[C@@H](CC(C)C)C(=O)N[C@@H](CCSC)C(=O)N[C@@H](CC(N)=O)C(=O)N[C@H](C(N)=O)[C@@H](C)O)C(C)C` [Peptide 32]: the EC50 in assay [1] is 14 ± 1 pM; in assay [2] it was 22 ± 1 pM.

Regarding `CC[C@H](C)[C@H](NC(=O)[C@H](Cc1ccc(O)cc1)NC(=O)[C@H](CC(=O)O)NC(=O)[C@H](CO)NC(=O)[C@@H](NC(=O)[C@H](Cc1ccccc1)NC(=O)[C@@H](NC(=O)CNC(=O)[C@H](CCC(N)=O)NC(=O)[C@H](CO)NC(=O)[C@@H](N)Cc1c[nH]cn1)[C@@H](C)O)[C@@H](C)O)C(=O)N[C@@H](CCCCN)C(=O)N[C@@H](CC(C)C)C(=O)N[C@@H](CC(C)C)C(=O)N[C@@H](CC(=O)O)C(=O)N[C@@H](CO)C(=O)N[C@@H](CCCNC(=N)N)C(=O)N[C@@H](CCCNC(=N)N)C(=O)N[C@@H](C)C(=O)N[C@@H](CCC(N)=O)C(=O)N[C@@H](CC(=O)O)C(=O)N[C@@H](Cc1ccccc1)C(=O)N[C@H](C(=O)N[C@@H](CCC(N)=O)C(=O)N[C@@H](Cc1c[nH]c2ccccc12)C(=O)N[C@@H](CC(C)C)C(=O)N[C@@H](CCSC)C(=O)N[C@@H](CC(N)=O)C(=O)N[C@H](C(N)=O)[C@@H](C)O)C(C)C` [Peptide 7] (H-HSQGTFTSDYIKLLDSRRAQDFVQWLMNT-NH2), the EC50 in assay [1] turned out to be 301 ± 216 pM; in assay [2], 78300 ± 93800 pM.

`CSCC[C@H](NC(=O)[C@H](CC(C)C)NC(=O)[C@H](Cc1c[nH]c2ccccc12)NC(=O)[C@H](CCC(N)=O)NC(=O)[C@@H](NC(=O)[C@H](Cc1ccccc1)NC(=O)[C@H](CC(=O)O)NC(=O)[C@H](CCC(N)=O)NC(=O)[C@H](C)NC(=O)[C@H](CCCNC(=N)N)NC(=O)[C@H](CCCNC(=N)N)NC(=O)[C@H](CO)NC(=O)[C@H](CC(=O)O)NC(=O)[C@H](CC(C)C)NC(=O)[C@H](Cc1ccc(O)cc1)NC(=O)[C@H](CCCCN)NC(=O)[C@H](CO)NC(=O)[C@H](Cc1ccc(O)cc1)NC(=O)[C@H](CC(=O)O)NC(=O)[C@H](CO)NC(=O)[C@@H](NC(=O)[C@H](Cc1ccccc1)NC(=O)[C@@H](NC(=O)CNC(=O)[C@H](Cc1c[nH]cn1)NC(=O)[C@H](CO)NC(=O)[C@@H](N)Cc1c[nH]cn1)[C@@H](C)O)[C@@H](C)O)C(C)C)C(=O)N[C@H](C(=O)N[C@H](C(N)=O)[C@@H](C)O)[C@@H](C)O` [Peptide 29]: the EC50 is 32 ± 3 pM in assay [1] and 80 ± 6 pM in assay [2].

In the case of `CSCC[C@H](NC(=O)[C@H](CC(C)C)NC(=O)[C@H](Cc1c[nH]c2ccccc12)NC(=O)[C@H](CCC(N)=O)NC(=O)[C@@H](NC(=O)[C@H](Cc1ccccc1)NC(=O)[C@H](CC(=O)O)NC(=O)[C@H](CCC(N)=O)NC(=O)[C@H](C)NC(=O)[C@H](CCCNC(=N)N)NC(=O)[C@H](CCCNC(=N)N)NC(=O)[C@H](CO)NC(=O)[C@H](CC(=O)O)NC(=O)[C@H](CC(C)C)NC(=O)[C@H](Cc1ccc(O)cc1)NC(=O)[C@H](Cc1ccc(O)cc1)NC(=O)[C@H](Cc1ccc(O)cc1)NC(=O)[C@H](Cc1ccc(O)cc1)NC(=O)[C@H](CC(=O)O)NC(=O)[C@H](Cc1c[nH]cn1)NC(=O)[C@H](CC(C)C)NC(=O)[C@H](Cc1ccccc1)NC(=O)[C@@H](NC(=O)CNC(=O)[C@H](CCC(N)=O)NC(=O)[C@H](CO)NC(=O)[C@@H](N)Cc1c[nH]cn1)[C@@H](C)O)C(C)C)C(=O)N[C@@H](CC(=O)O)C(=O)N[C@H](C(N)=O)[C@@H](C)O` [Peptide 17] (H-HSQGTFLHDYYYYLDSRRAQDFVQWLMDT-NH2), the EC50 in assay [1] is 527 ± 315 pM; in assay [2] it was over 200000 pM.
